Experimental data as given in ChEMBL document CHEMBL4373746, “Structural attributes influencing unbound tissue distribution” (Eur J Med Chem, 2020).

How the values were obtained:
[1] = Fraction unbound in Wistar Han rat plasma at 2 uM incubated for 6 hrs by equilibrium dialysis method
[2] = Fraction unbound in Wistar Han rat white adipose tissue at 2 uM incubated for 6 hrs by equilibrium dialysis method
[3] = Fraction unbound in Wistar Han rat brain at 2 uM incubated for 6 hrs by equilibrium dialysis method
[4] = Fraction unbound in Wistar Han rat heart at 2 uM incubated for 6 hrs by equilibrium dialysis method
[5] = Fraction unbound in Wistar Han rat liver at 2 uM incubated for 6 hrs by equilibrium dialysis method
[6] = Fraction unbound in Wistar Han rat skeletal muscle at 2 uM incubated for 6 hrs by equilibrium dialysis method
[7] = Total plasma concentration in Wistar Han rat at 1 to 2 mg/kg, iv infused for 10 to 20 hrs by LC-MS/MS analysis; details: in vivo
[8] = Drug concentration in total white adipose tissue in Wistar Han rat at 1 to 2 mg/kg, iv infused for 10 to 20 hrs by LC-MS/MS analysis; details: in vivo
[9] = Drug concentration in total brain in Wistar Han rat at 1 to 2 mg/kg, iv infused for 10 to 20 hrs by LC-MS/MS analysis; details: in vivo
[10] = Drug concentration in total heart in Wistar Han rat at 1 to 2 mg/kg, iv infused for 10 to 20 hrs by LC-MS/MS analysis; details: in vivo
[11] = Drug concentration in total liver in Wistar Han rat at 1 to 2 mg/kg, iv infused for 10 to 20 hrs by LC-MS/MS analysis; details: in vivo
[12] = Drug concentration in total skeletal muscle in Wistar Han rat at 1 to 2 mg/kg, iv infused for 10 to 20 hrs by LC-MS/MS analysis; details: in vivo
[13] = Unbound tissue partition coefficient, ratio of drug level in heart to plasma in Wistar Han rat at 1 to 2 mg/kg, iv infused for 10 to 20 hrs by LC-MS/MS analysis; details: heart/plasma
[14] = Unbound tissue partition coefficient, ratio of drug level in brain to plasma in Wistar Han rat at 1 to 2 mg/kg, iv infused for 10 to 20 hrs by LC-MS/MS analysis; details: brain/plasma
[15] = Unbound tissue partition coefficient, ratio of drug level in adipose to plasma in Wistar Han rat at 1 to 2 mg/kg, iv infused for 10 to 20 hrs by LC-MS/MS analysis; details: adipose/plasma
[16] = Unbound tissue partition coefficient, ratio of drug level in liver to plasma in Wistar Han rat at 1 to 2 mg/kg, iv infused for 10 to 20 hrs by LC-MS/MS analysis; details: liver/plasma
[17] = Unbound tissue partition coefficient, ratio of drug level in skeletal muscle to plasma in Wistar Han rat at 1 to 2 mg/kg, iv infused for 10 to 20 hrs by LC-MS/MS analysis; details: skeletal muscle/plasma
[18] = Apparent permeability of the compound across dog RRCK cells by MDCK-LE assay

Row | Structure (SMILES) | fraction unbound at 6 h, 2 µM [1] | fraction unbound at 6 h, 2 µM [2] | fraction unbound at 6 h, 2 µM [3] | fraction unbound at 6 h, 2 µM [4] | fraction unbound at 6 h, 2 µM [5] | fraction unbound at 6 h, 2 µM [6] | Cp [7] [ng/mL] | Ct [8] [ng/mL] | Ct [9] [ng/mL] | Ct [10] [ng/mL] | Ct [11] [ng/mL] | Ct [12] [ng/mL] | Kp uu [13] | Kp uu [14] | Kp uu [15] | Kp uu [16] | Kp uu [17] | Papp [18] [×10⁻⁶ cm/s]
1 | COc1cc2c(cc1Cc1ccccc1)C[C@H](N)C(=O)N2OC(=O)N(C)C | 0.354 | 0.214 | 0.0385 | 0.209 | 0.147 | 0.0886 | 18 | 33 | 16 | 76 | 33 | 32 | 2.5 | 0.1 | 1.1 | 0.74 | 0.46 | 38
2 | O=C(O)c1nc2cc(Cl)c(Cl)cc2nc1O [6,7-DICHLORO-3-HYDROXY-2-QUINOXALINECARBOXYLIC ACID] | 0.0414 | 0.476 | 1 | 0.284 | 0.24 | 0.435 | 56 | 0.77 | 0.38 | 12 | 17 | 5.3 | 1.8 | 0.0018 | 0.024 | 2 | 1.1 | 1.3
3 | COc1ccc(Cc2cc([C@@H]3OC4(COC4)[C@@H](O)[C@H](O)[C@H]3O)ccc2C)cc1 | 0.212 | 0.132 | 0.0553 | 0.076 | 0.125 | 0.114 | 81 | 20 | 15 | 260 | 360 | 110 | 1.2 | 0.048 | 0.16 | 2.7 | 0.71 | 5.8
4 | CC(C)C[C@H](Nc1ccc(C(=O)NCCC(=O)O)cn1)c1ccc(-c2ccc(C(F)(F)F)cn2)cc1 | 0.0141 | 0.119 | 0.00795 | 0.00934 | 0.00684 | 0.011 | 45 | 0.77 | 0.95 | 45 | 1000 | 0.8 | 0.57 | 0.0042 | 0.024 | 12 | 0.02 | 0.1
5 | O=C(NC1CCCC1)C1CCN(c2nc3cc(Cl)ccc3o2)CC1 | 0.00646 | 0.0248 | 0.0144 | 0.0292 | 0.0414 | 0.02 | 310 | 330 | 88 | 150 | 210 | 59 | 2.2 | 0.64 | 3.9 | 4.3 | 0.61 | 35
6 | O=C(c1cccc(N2CCNCC2)n1)N1CCC(c2ccccc2F)CC1 | 0.0995 | 0.393 | 0.0227 | 0.057 | 0.0394 | 0.0483 | 42 | 28 | 14 | 410 | 960 | 170 | 5.3 | 0.078 | 2.4 | 9.4 | 2 | 24
7 | COCCCN1C[C@H](C)N(C(=O)N2Cc3c(NC(=O)c4ccccn4)n[nH]c3C2(C)C)C[C@H]1C | 0.614 | 0.329 | 0.0796 | 0.341 | 0.375 | 0.385 | 30 | 27 | 3.4 | 110 | 170 | 68 | 2.2 | 0.015 | 0.51 | 3.8 | 1.5 | 21
8 | COc1ccc(-c2cc3c(C(=O)O)n[nH]c3cc2Cl)cc1 | 0.00439 | 0.334 | 0.0135 | 0.0256 | 0.0193 | 0.0398 | 96 | 1 | 0.6 | 29 | 140 | 1.9 | 1.8 | 0.017 | 1.2 | 6.5 | 0.15 | 8.8
9 | COc1ccc2ncc(F)c([C@@H](O)CC[C@@H]3CCN(CCSc4cccs4)C[C@@H]3C(=O)O)c2c1 | 0.19 | 0.672 | 0.0945 | 0.15 | 0.191 | 0.132 | 79 | 5.4 | 0.69 | 77 | 350 | 33 | 0.75 | 0.0032 | 0.26 | 4.5 | 0.29 | 9.8
10 | O=C(O)c1c[nH]c2cc(Cl)c(-c3ccc(CC(=O)N4CCOCC4)cc3)cc12 | 0.00645 | 0.386 | 0.181 | 0.0746 | 0.0789 | 0.133 | 72 | 2 | 0.38 | 21 | 210 | 0.89 | 3.4 | 0.0018 | 1.6 | 40 | 0.16 | 2.4
11 | O=C(O)[C@@H]1CCN(C(=O)n2cnc(-c3ccc(-c4cnc(N5CCOCC5)nc4)cc3)n2)[C@@H](c2ccccc2)C1 | 0.00353 | 0.165 | 0.00874 | 0.0159 | 0.00824 | 0.017 | 88 | 0.77 | 0.38 | 80 | 1.5 | 20 | 4.2 | 0.0018 | 0.024 | 0.037 | 1.1 | 17
